*1 amine or outer side, *2 acyl side, *3 side chain or, on linkers, in order; H or OH if unused. Where a SMILES comes first, the peptide text is derived from it. Bridges are numbered along the chain shown (N, C = ends). Where no end group is shown, it is not given here. [ ]: non-standard residue; d: D form. ξ: configuration not given here. ξGly(dodecyl) = CCCCCCCCCCCCC(N)C(=O)O; mXylylene = c1cc(C[*:1])cc(C[*:2])c1
Experiments:
[1] = system: NBFL cells; experiment: BDNF, NGF and KV4.3 transcript levels in NBFL cells dosed with linear or cyclic RPP; format: cell-based; conditions: 1 μM
Experimental: FIG. 9. Comparison of linear and cyclic RPP. […] Efficacy on was assessed by measuring changes in (A) BDNF, (B) NGF, and (C) KV4.3 transcript levels. N=1
Plasmids. RPP (SEQ ID NOS: 2 and 4): One segment of this construct containing T7 promoter, CPP, and His tag was synthesized as a gBlock (Table 8) by IDT and amplified with primers described in Table 8. The PCR reaction (20 μL) was initially heated at 95° C. for 2.5 min followed by 30 cycles of denaturation at 94° C. for 15 sec., annealing at 55° C. for 15 sec., and extension at 72° C. for 30 seconds. Following amplification, PCR fragment was gel-purified by the QIAGEN gel-band purification kit according to manufacturer's protocol.
In vitro Expression. RPP (Table 8) or CP (Table 9) were expressed in vitro using the PURE Express In Vitro Protein Synthesis Kit (New England Biolabs). The RPP (SEQ ID NOS: 2 and 4) or CP sequence was amplified from the RPP (SEQ ID NOS: 2 and 4) or CP expression constructs (Table 8 and 9) with primers listed in Table 8, and gel-purified by the QIAGEN gel-band purification kit. The PCR reaction (20 μL) was initially heated at 95° C. for 2.5 min followed by 30 cycles of denaturation at 94° C. for 15 sec., annealing at 55° C. for 15 sec., and extension at 72° C. for 30 sec. Then, 15 μL of the purified PCR fragment was mixed with 10 μL of Solution A and 7.5 μL of Solution B of the PURE Express In Vitro Protein Synthesis Kit (New England Biolabs) and incubated 2 hours at 37° C. Next, 2 μL of DNAse I was added and incubated for 20 min at 37° C.
Purification. RPP (SEQ ID NOS: 2 and 4) and CP: The final solution from the in vitro expression step was diluted to 100 μL and filtered through the Amicon Ultracel 0.5 mL-100K columns (Sigma) to remove ribosomes. The flow through was added to 100 μL of washed Ni-NTA Magnetic Agarose Beads (Qiagen) and was washed with wash buffer as described by the manufacturer.
Cyclization. The RPP (SEQ ID NO: 2) or was cyclized by mixing the beads with 500 μL of the cyclization solution which was made by mixing 2.65 mL of the 1.33×PBS (66.5 mM phosphate buffer, 400 mM NaCl) with 1.32 mL of dibromo-m-xylene solution in acetonitrile (2.5 mg/mL). Following incubation with the cyclization solution beads were washed once with wash buffer I (PBS with 25 mM imidazole, 0.5 μL/mL of mercaptoethanol), once with wash buffer II (PBS with 25 mM imidazole, 0.5 mM TCEP), twice with wash buffer III (PBS with 25 mM imidazole) and eluted with 50 μL of the elution buffer (PBS with 500 mM imidazole). Imidazole was removed using Bio-Rad Micro Bio-Spin Chromatography columns.
Dosing and Cell Culture. NBFL cells (FIG. 9) grown in 6 well were dosed with 1 μM of linear (SEQ ID NO: 2) or cyclic (SEQ ID NO: 2) RPP (Table 8) or control peptide (Table 9) for 16 or 48 hours.
After dosing, cells were lysed and assessed for BDNF, NGF, and KV4.3 mRNA levels (FIG. 9). All of the primers used have been described except for NGF: forward: 5′[…]3′ (SEQ ID NO: 338) and reverse 5′[…]3′ (SEQ ID NO: 339).

[2] = Localization in spinal cord after injection at sciatic nerve defect; conditions: 1 mg injected into site of sciatic nerve defect, 48 hours
Experimental: FIG. 5. […] A 0.7 cm coronal spinal cord section from the […] region of a Sprague Dawley (SD) male rat showing the surrounding nuclei of the sciatic nerve, harvested 48 hours after 1 mg (1 mg/mL) of peptide was injected into the sight of a mid-thigh sciatic nerve defect injury.
Dosing and Procedure. […] After 48 hours, the animal was sacrificed and the spinal cord from the L4 to L6 region was sectioned coronally.
Immunohistochemistry. Hoechst 333429 (Calbiochem) dye was used to visualize the nucleus, and FLAG antibody (Sigma-Aldrich) was used to visualize the RPP. Images were taken with a light microscope.

[3] = system: L5 DRGs; experiment: qRT-PCR mRNA expression in ex vivo cultured L5 DRGs; format: cell-based, Sprague Dawley rat; conditions: DRG; 1 μM; 48 h
Experimental: FIG. 15. […] Error bars =standard error of the mean.
L5 DRGs were dissected from adult male rats and plated in 12-well plates pre-coated with poly-D-Lysine (PDL) and laminin in a minimal volume of medium (250 ul Neurobasal™-A medium (GIBCO) supplemented with B27 (GIBCO), 50 ng/ml NGF (Sigma-Aldrich) and penicillin streptomycin) to allow attachment to the culture plate. One day after plating, DRGs were incubated with RPP (SEQ. ID NO: 12: 1 μM, 3 μM or 10 μM in culture medium, FIGS. 14 and 16; SEQ ID NOS: 13 and 14: 3 μM, FIG. 15) for 48 h. For RNA expression analysis, DRGs were lysed in 300 μl of Qiazol in a 1.5 ml tube containing Bullet Blender Pink Beads using a Bullet Blender Tissue Homogenizer (NextAdvance). Total RNA was extracted using RNeasy Midi Kit (Qiagen) according to manufacturer's instructions. Purified RNA was quantified with NanoDrop 2000 (ThermoFIsher), and reverse transcription was run using High Capacity cDNA Reverse Transcription Kit (Applied Biosystems) and 2 ng/ul RNA per reaction. For qRT-PCR, 5 ul of cDNA (corresponding to 10 ng of RNA) were mixed with to 10 ul SsoAdvanced™ Universal SYBR® Green Supermix (BioRad) and 1 ul of each primer (final primer concentration 500 nM each). Reactions were run in triplicates in a QuantStudio™ 7 Flex Real-Time PCR system (Applied Biosystems). Amplification data were analyzed using the comparative cycle threshold (ΔΔCt) method and β-actin as calibrator. Primers were as follows: β-actin: F-[…] (SEQ ID NO: 340), R-[…] (SEQ ID NO: 333); KV4.3: F-[…] (SEQ ID NO: 341), R-[…] (SEQ ID NO: 342); KV7.2 F-[…] AG (SEQ ID NO: 343), R-[…] (SEQ ID NO: 344); OPRM1: F-[…] (SEQ ID NO: 345), R-[…] (SEQ ID NO: 346).

[4] = system: iPSCs (neural stem cells (NSC)-NL5); experiment: Neuronal differentiation of iPSC NSC-NL5 (MAP2, TUJ1 normalized to DAPI); format: cell-based, human; conditions: 7 days
Experimental: FIG. 11. iPSCs (neural stem cells (NSC)-NL5) were dosed with one of the RPP sequences (3 μM) or water control shown below. After 7 days in culture, cells were assessed for neuronal differentiation using the Microtubule Associated Protein 2 (MAP2) neuronal marker (normalized to DAPI). Media and variants were replaced on Day 3. MAP2 levels are relative to control in the bar graph (standard deviation n=4).
FIG. 12. iPSCs (neural stem cells (NSC)-NL5) were with 1 μM RPP (SEQ ID NO. 9) or water control. After 7 days in culture, cells were assessed for neuronal differentiation using neuronal markers TUJ1 (class III beta-tubulin) and MAP2 (both normalized to DAPI). Media and RPP were replaced on Day 3. (standard deviation, n=6).
FIG. 13. iPSCs (neural stem cells (NSC)-NL5) were with 1 μM RPP (SEQ ID NO. 13) or water control. After 7 days in culture, cells were assessed for neuronal differentiation using neuronal markers TUJ1 and MAP2 (both normalized to DAPI). Media and RPP were replaced on Day 3. (standard deviation, n=6).
Approach 2: Induced pluripotent stem cells (neural stem cells (NSC)-NL5) differentiate after 7 Days of RPP dosing (FIG. 11 (SEQ ID NOS: 5-11, 3 μM); FIG. 12 (SEQ ID NO: 9, 1 μM) FIG. 13 (SEQ ID NO: 13 (FIG. 27), 1 μM)) using the following “Neuron to Blank” protocol: • 1. 24 well culture plates (Black Visiplate) were coated with Matrigel ([…] for 30 minutes at 37° C.). • 2. NSCs-NLS (see media below) were plated at 0.5×10^5 per well.
• 3. After 24 hours (cells should be >70% confluent), the media was changed to neuronal differentiation medium (below) with various concentrations of test peptides or water control added (FIGS. 11, 12, and 13, Table 14). The neuronal differentiation medium, with new test peptides and control, was changed every 2 days for 5 days.
• 4. On Day 7 cells were fixed 4% formaldehyde in 1×PBS for 30 minutes. • 5. Cells were immunolabeled with mouse anti-TUJ1 (1:1000) and rabbit anti-Map2 (1:500) overnight. Then label with 2nd antibody (anti-mouse488, anti-rabbit568 and DAPi) for 1 hour. • 6. Data was collected on a BioTek plate reader • a. Dapi: Excitation 360/40; Emission 460/20, Gain 35; • b. Alexa 488: Excitation 485/20; Emission 528/20, Gain 50; • c. Alexa 568: Excitation 560/20; Emission 620/10, Gain 75).

[5] = system: mesenchymal progenitor cells (MPCs); experiment: BDNF and NGF mRNA expression in MPCs; format: cell-based, human; conditions: MPC, 3 μM
Experimental: FIG. 10. BDNF and NGF mRNA expression (normalized to actin) in mesenchymal progenitor cells (MPCs), from two patients, after a 48 hour incubation with water (Ctrl) or […] RPP (SEQ. ID NO: 9). mRNA levels are shown relative to control (standard deviation, n=2).
Mesenchymal progenitor cells (MPCs) (FIG. 10) from two patients were plated on 12 well plates and cultured in general medium (GM) (DMEM, 10% FBS, PSF). Lyophilized RPP (SEQ ID NO: 9) was dissolved in water at a concentration of 5 mM (1 mg/34.89, diluted in medium to 3 μM, and then incubated with the cell for 48 hours. The control was water.
MPCs were cultured as described in Gervasi et al., 2020^76.

MCTEDLEPPEPPLPKENCGSGSGRKKRRQRRRGGSGSLGHHHHHHGTGY (linker 2-18 via mXylylene (inferred)) [SEQ ID NO: 2, RPP-CPP-His, cyclized with dibromo-m-xylene]
Increase, BDNF mRNA ([1]; 16 h): 5x | Increase, KV4.3 mRNA ([1]; 16 h): 5x | Increase, NGF mRNA ([1]; 16 h): 3.2x | Increase, BDNF mRNA ([1]; 48 h): 2.3x | Increase, KV4.3 mRNA ([1]; 48 h): 5x | Increase, NGF mRNA ([1]; 48 h): 1.7x | Increase, BDNF mRNA ([1]; 48 h, listed as Cyclic): 1.75× x | Increase, KV4.3 mRNA ([1]; 48 h, listed as Cyclic): 25× x | Increase, NGF mRNA ([1]; 48 h, listed as Cyclic): 1.87 x

CC(C)C[C@H](NC(=O)[C@H](CC(=O)O)NC(=O)[C@H](CCC(=O)O)NC(=O)[C@@H](NC(=O)[C@H](CCCCN)NC(=O)[C@H](CC(=O)O)NC(=O)[C@H](CC(=O)O)NC(=O)[C@H](CC(=O)O)NC(=O)[C@H](CC(=O)O)NC(=O)[C@H](CCCCN)NC(=O)[C@H](Cc1ccc(O)cc1)NC(=O)[C@H](CC(=O)O)NC(=O)[C@H](CCCCN)NC(=O)[C@H](CCC(N)=O)NC(=O)[C@H](C)NC(=O)[C@@H](N)CS)[C@@H](C)O)C(=O)N[C@@H](CCC(=O)O)C(=O)N1CCC[C@H]1C(=O)N1CCC[C@H]1C(=O)N[C@@H](CCC(=O)O)C(=O)N1CCC[C@H]1C(=O)N1CCC[C@H]1C(=O)N[C@@H](CC(C)C)C(=O)N1CCC[C@H]1C(=O)N[C@@H](CCCCN)C(=O)N[C@@H](CCC(=O)O)C(=O)N[C@@H](CC(N)=O)C(=O)NCC(=O)N[C@@H](CCCNC(=N)N)C(=O)N[C@@H](CCCCN)C(=O)N[C@@H](CCCCN)C(=O)N[C@@H](CCCNC(=N)N)C(=O)N[C@@H](CCCNC(=N)N)C(=O)N[C@@H](CCC(N)=O)C(=O)N[C@@H](CCCNC(=N)N)C(=O)N[C@@H](CCCNC(=N)N)C(=O)N[C@@H](CCCNC(=N)N)C(=O)NCC(=O)O [SEQ ID NO: 4] (H-CAQKDYKDDDDKTEDLEPPEPPLPKENGRKKRRQRRRG-OH; N-terminus and C-terminus assumed)
localization in nuclei of sciatic nerve neurons in spinal cord [2]: accumulates in the nuclei of the sciatic nerve in spinal cord | localization in nuclei of sciatic nerve neurons in spinal cord ([2]; listed as Linear RPP): accumulates in the nucleus of sciatic nerve tissue

SEQ ID NO: 13: CPP with poly arginine sequence and two 2-aminotetradecanoic acids integrated with the REST RI phosphomimetic ([dR][dR][ξGly(dodecyl)][dR][dR][ξGly(dodecyl)][dR][dR][dR][dR][dR][dK][dP][dL][dP][dP][dE][dP][dP][dE][dL][dD][dE])
Increase, Nav1.8 mRNA [3]: 6x | increase of differentiation, MAP2 normalized to DAPI ([4]; 0.1 μM): 27% | increase of differentiation, TUJ1 normalized to DAPI ([4]; 0.1 μM): 60% | increase of differentiation, MAP2 normalized to DAPI ([4]; 1 μM): 2 times | increase of differentiation, TUJ1 normalized to DAPI ([4]; 1 μM): 3 times

rrrrwrrwwrrwrrnekplppeppeldet ([dR][dR][dR][dR][dW][dR][dR][dW][dW][dR][dR][dW][dR][dR][dN][dE][dK][dP][dL][dP][dP][dE][dP][dP][dE][dL][dD][dE][dT]) [SEQ ID NO: 9]
Increase, BDNF mRNA ([5]; 48 h): 2x | Increase, NGF mRNA ([5]; 48 h): 2.9x | increase of BDNF relative to water control ([5]; 48 hours): approximately 2 times | increase of NGF relative to water control ([5]; 48 hours): ~3 times
